Read-outs that look alike come from different tables or passages of the source.
Columns and labels:
[1] = target: PRMT5/MEP50 (Homo sapiens, UniProt O14744); assay: PRMT family radioactive assay; type: biochemical; conditions: Type II; 60 minute SAM:Enzyme:Compound A preincubation
[2] = test system: 196 human cancer cell lines; assay: 6-day growth-death assay (Cell Titer Glo); type: cell-based
Procedure: (§1) The growth of all cell lines was evaluated over time across a wide range of seeding densities to identify conditions that permitted proliferation throughout the entire 6-day assay. Cells were plated at the optimal seeding density and after overnight incubation, a 20-point 2-fold titration of compound was added and plates were incubated for 6 days. A replicate plate of cells was harvested at the time of compound addition to quantify the starting number of cells (To). Values obtained after the 6 day treatment were expressed as a function of the To value and plotted against compound concentration. The To value was normalized to 100% and represents the number of cells at the time of compound addition. The data were fit with a 4 parameter equation to generate a concentration response curve and the growth IC50 (gIC50) was determined. The gIC50 is the midpoint of the ‘growth window’, the difference between the number of cells at the time of compound addition (T0) and the number of cells after 6 days (DMSO control). The growth-death assay can be used to quantify the net population change, clearly defining cell death (cytotoxicity) as fewer cells compared to the number at the time of compound addition (T0).

[3] = test system: Lymphoma cell lines; assay: 6-day growth-death assay (Cell Titer Glo); type: cell-based, human; conditions: for IC50: Homo sapiens, read-out: Median gIC50, Lymphoma
Procedure: as §1

[4] = test system: arginine methylation in Toledo DLBCL cells; assay: Western analysis of arginine methylation marks (ADMA, SDMA, MMA); type: cell-based, human
Text: (B) Representative western blots of arginine methylation marks. Regions quantified are denoted by black bars on the right of the gel.
(B) Representative western blots of arginine methylation marks. Regions quantified for (A) are denoted by black bars on the side of the gel.
As predicted, ADMA methylation decreased while MMA increased upon compound exposure (FIG. 12). […] Given the detection of numerous substrates with varying kinetics, and variability of ADMA levels among DMSO-treated samples, both the full lane and a prominent 45 kDa band were characterized to assess ADMA. Increases in MMA were apparent by 24 hours and near maximal by 48 hours while decreases in the 45 kDa ADMA band required 72-96 hours to achieve maximal effect. Increases in SDMA were apparent after 48 hours of compound exposure and continued to increase through 120 hours, consistent with the potential switch from conversion of MMA to ADMA by Type I PRMTs to SDMA by Type II PRMTs (FIG. 12).
Cells were then washed, cultured in Compound A-free media, samples were collected daily through 120 hours, and arginine methylation levels were examined by western analysis. […] SDMA appeared to continue to increase even after 6 hours of washout. This is consistent with the continued increase observed through 120 hours without any obvious plateau (FIG. 12) coupled with the durable increase in MMA that has not yet returned to baseline after washout. Durability of each modification generally reflected the kinetics of arginine methylation changes brought about by Compound A, with MMA being the most rapid.

[5] = target: PRMT6 (Homo sapiens, UniProt Q96LA8); assay: biochemical
Sequence of PRMT6 (Q96LA8 whole entry): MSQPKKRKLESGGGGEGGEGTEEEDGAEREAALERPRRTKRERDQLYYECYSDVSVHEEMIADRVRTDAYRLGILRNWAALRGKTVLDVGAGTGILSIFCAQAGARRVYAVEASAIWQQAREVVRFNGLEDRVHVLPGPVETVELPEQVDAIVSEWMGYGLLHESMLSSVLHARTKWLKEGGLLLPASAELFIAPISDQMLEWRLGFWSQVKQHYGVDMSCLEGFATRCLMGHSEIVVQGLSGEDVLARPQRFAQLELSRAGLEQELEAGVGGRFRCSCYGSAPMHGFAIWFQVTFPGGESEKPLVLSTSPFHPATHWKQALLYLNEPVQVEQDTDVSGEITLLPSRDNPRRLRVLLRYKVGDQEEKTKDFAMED

[6] = target: PRMT8 (Homo sapiens, UniProt Q9NR22); assay: biochemical
Sequence of PRMT8 (Q9NR22 whole entry): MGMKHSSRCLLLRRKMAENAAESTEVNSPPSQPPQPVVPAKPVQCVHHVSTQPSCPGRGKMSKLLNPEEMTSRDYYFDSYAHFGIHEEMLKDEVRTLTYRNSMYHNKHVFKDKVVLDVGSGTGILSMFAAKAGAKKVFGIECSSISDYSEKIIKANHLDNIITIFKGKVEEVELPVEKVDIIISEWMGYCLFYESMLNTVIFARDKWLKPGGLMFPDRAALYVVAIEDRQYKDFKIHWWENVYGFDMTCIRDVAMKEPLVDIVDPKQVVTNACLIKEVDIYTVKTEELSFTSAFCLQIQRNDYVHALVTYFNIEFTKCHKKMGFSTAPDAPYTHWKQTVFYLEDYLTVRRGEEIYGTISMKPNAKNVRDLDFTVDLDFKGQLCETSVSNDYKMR

[7] = 0.4 μM Compound A for 72 hours then washout

Sequence of PRMT5/MEP50 (O14744 whole entry): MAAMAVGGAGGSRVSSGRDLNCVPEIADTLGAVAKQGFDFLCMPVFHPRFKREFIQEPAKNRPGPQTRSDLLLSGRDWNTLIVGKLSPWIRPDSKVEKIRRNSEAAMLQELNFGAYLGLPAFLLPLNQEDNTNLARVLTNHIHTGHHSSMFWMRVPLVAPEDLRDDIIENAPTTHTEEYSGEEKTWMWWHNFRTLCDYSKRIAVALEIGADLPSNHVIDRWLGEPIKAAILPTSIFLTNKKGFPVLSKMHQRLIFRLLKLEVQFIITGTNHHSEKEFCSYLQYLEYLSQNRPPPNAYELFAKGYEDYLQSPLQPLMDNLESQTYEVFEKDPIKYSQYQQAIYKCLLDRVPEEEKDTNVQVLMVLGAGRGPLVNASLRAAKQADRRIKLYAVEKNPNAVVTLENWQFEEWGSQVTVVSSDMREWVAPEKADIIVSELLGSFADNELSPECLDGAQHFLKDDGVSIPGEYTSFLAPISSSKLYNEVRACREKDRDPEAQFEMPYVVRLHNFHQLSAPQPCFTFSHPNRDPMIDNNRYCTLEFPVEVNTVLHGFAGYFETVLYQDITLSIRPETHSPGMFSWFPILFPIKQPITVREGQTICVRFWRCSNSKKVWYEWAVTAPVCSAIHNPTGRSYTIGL
Sequence of PRMT5/MEP50 (Q9BQA1 whole entry partner): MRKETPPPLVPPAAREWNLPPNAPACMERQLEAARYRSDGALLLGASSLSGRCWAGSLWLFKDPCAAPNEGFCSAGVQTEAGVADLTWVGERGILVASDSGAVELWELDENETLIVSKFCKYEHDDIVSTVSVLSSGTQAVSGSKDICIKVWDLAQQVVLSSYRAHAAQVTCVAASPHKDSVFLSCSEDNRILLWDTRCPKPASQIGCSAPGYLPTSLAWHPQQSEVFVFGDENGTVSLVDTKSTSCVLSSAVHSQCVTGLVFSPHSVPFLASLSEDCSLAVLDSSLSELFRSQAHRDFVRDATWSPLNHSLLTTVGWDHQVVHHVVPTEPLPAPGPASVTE

Structure (SMILES): CCOCC1(COCC)CCC(c2n[nH]cc2CN(C)CCNC)CC1 [Compound A]
- inhibition of activity [1]: failed to inhibit
- % Cytotoxic (cell lines with negative Ymin−T0) ([2]; 6-day, Total, 196 cell lines): 23%
- % gIC100 < 2 μM (of cell lines) ([2]; 6-day, Total, 196 cell lines): 4%
- IC50 ([2]; Homo sapiens, 144 h, read-out: Median gIC50): 2120 nM
- % Cytotoxic (cell lines with negative Ymin−T0) ([3]; 6-day, Lymphoma, 59 cell lines): 54%
- % gIC100 < 2 μM (of cell lines) ([3]; 6-day, Lymphoma, 59 cell lines): 14%
- IC50 ([3]; MTAP High): 600 nM
- IC50 ([3]; MTAP Low): 100 nM
- Median % Ymin − T0 ([3]; Lymphoma, MTAP High): 17%
- Median gIC100 ([3]; Lymphoma, MTAP High): 24.4 µM
- Median % Ymin − T0 ([3]; Lymphoma, MTAP Low): −89%
- Median gIC100 ([3]; Lymphoma, MTAP Low): 5.3 µM
- time after which increases in SDMA were apparent ([4]; 0.4 μM Compound A): 48 h
- time at which increases in MMA were apparent ([4]; 0.4 μM Compound A): ≤ 24 h
- time at which increases in MMA were near maximal ([4]; 0.4 μM Compound A): ≤ 48 h
- time required for maximal decrease in the 45 kDa ADMA band ([4]; 0.4 μM Compound A): 72 to 96 h
- time for ADMA to return to baseline after washout [4, 7]: ≤ 24 h
- time for MMA to return to baseline after washout [4, 7]: ≤ 24 h
- time for SDMA to return to baseline after washout [4, 7]: ≤ 96 h
- IC50 [5]: 3 to 5 nM
- IC50 [6]: 3 to 5 nM

Reference: patent US20190365710A1, “METHODS OF TREATING CANCER” (GlaxoSmithKline Intellectual Property Development Limited, priority 2016, published 2019)
